Measurements from the NIST ThermoML archive (doi:10.1016/j.fluid.2004.09.013).

Details: for mass density: Fluid (supercritical or subcritical phases), Vibrating tube method; for vapor or sublimation pressure: Liquid

C=C(C)C [2-methylpropene]
Details | mass density [kg/m3]
273.23 K, 615 kPa | 619.2
273.23 K, 9987 kPa | 631.07
273.23 K, 15001 kPa | 636.64
273.23 K, 20001 kPa | 641.78
273.23 K, 25007 kPa | 646.58
273.23 K, 29992 kPa | 651.06
273.23 K, 34986 kPa | 655.29
273.23 K, 40007 kPa | 659.29
273.24 K, 5018 kPa | 625.04
278.24 K, 625 kPa | 613.32
278.24 K, 9983 kPa | 625.79
278.24 K, 29985 kPa | 646.57
278.25 K, 4992 kPa | 619.43
278.25 K, 14997 kPa | 631.6
278.25 K, 19994 kPa | 636.96
278.25 K, 24995 kPa | 641.93
278.25 K, 35001 kPa | 650.96
278.25 K, 39983 kPa | 655.07
283.26 K, 623 kPa | 607.34
283.26 K, 4980 kPa | 613.78
283.26 K, 10001 kPa | 620.49
283.26 K, 15002 kPa | 626.55
283.26 K, 19992 kPa | 632.11
283.26 K, 24993 kPa | 637.28
283.26 K, 29994 kPa | 642.09
283.26 K, 34999 kPa | 646.62
283.26 K, 39994 kPa | 650.87
288.27 K, 622 kPa | 601.26
288.27 K, 4986 kPa | 608.09
288.27 K, 9999 kPa | 615.12
288.27 K, 15002 kPa | 621.46
288.27 K, 20000 kPa | 627.26
288.27 K, 24990 kPa | 632.61
288.27 K, 30003 kPa | 637.6
288.27 K, 35005 kPa | 642.28
288.27 K, 40002 kPa | 646.66
293.28 K, 624 kPa | 595.08
293.28 K, 4999 kPa | 602.33
293.28 K, 9991 kPa | 609.69
293.28 K, 14989 kPa | 616.34
293.28 K, 19994 kPa | 622.38
293.28 K, 24993 kPa | 627.94
293.28 K, 30001 kPa | 633.11
293.28 K, 35003 kPa | 637.94
293.28 K, 39987 kPa | 642.44
298.3 K, 624 kPa | 588.78
298.3 K, 4988 kPa | 596.46
298.3 K, 9992 kPa | 604.23
298.3 K, 14991 kPa | 611.17
298.3 K, 20004 kPa | 617.49
298.3 K, 25009 kPa | 623.26
298.3 K, 30005 kPa | 628.61
298.3 K, 34998 kPa | 633.59
298.3 K, 40003 kPa | 638.26
303.3 K, 638 kPa | 582.38
303.3 K, 14996 kPa | 606.02
303.3 K, 19992 kPa | 612.59
303.3 K, 24991 kPa | 618.59
303.3 K, 34996 kPa | 629.29
303.3 K, 39999 kPa | 634.1
303.31 K, 4990 kPa | 590.52
303.31 K, 9994 kPa | 598.73
303.31 K, 29988 kPa | 624.13
308.31 K, 706 kPa | 575.94
308.32 K, 4988 kPa | 584.48
308.32 K, 9989 kPa | 593.14
308.32 K, 14992 kPa | 600.77
308.32 K, 19998 kPa | 607.63
308.32 K, 24997 kPa | 613.87
308.32 K, 30005 kPa | 619.62
308.32 K, 34988 kPa | 624.91
308.32 K, 40003 kPa | 629.89
313.2 K, 951 kPa | 569.89
313.2 K, 4993 kPa | 578.43
313.2 K, 9992 kPa | 587.58
313.2 K, 14986 kPa | 595.55
313.2 K, 19994 kPa | 602.7
313.2 K, 24994 kPa | 609.17
313.2 K, 29987 kPa | 615.08
313.2 K, 34991 kPa | 620.58
313.2 K, 40013 kPa | 625.7
318.21 K, 1034 kPa | 563.28
318.21 K, 4991 kPa | 572.22
318.21 K, 9993 kPa | 581.88
318.21 K, 15000 kPa | 590.28
318.21 K, 20002 kPa | 597.73
318.21 K, 24998 kPa | 604.47
318.21 K, 29993 kPa | 610.61
318.21 K, 34995 kPa | 616.28
318.21 K, 39991 kPa | 621.54
323.22 K, 1130 kPa | 556.5
323.22 K, 5015 kPa | 565.89
323.22 K, 10019 kPa | 576.14
323.22 K, 15017 kPa | 584.94
323.22 K, 20010 kPa | 592.7
323.22 K, 25016 kPa | 599.69
323.22 K, 30006 kPa | 606.04
323.22 K, 34990 kPa | 611.88
328.22 K, 1213 kPa | 549.51
328.22 K, 4997 kPa | 559.34
328.22 K, 10001 kPa | 570.24

Details | vapor or sublimation pressure [kPa]
285.97 K | 206.58
297.46 K | 297.04
307.88 K | 404.2
315.82 K | 503.41
324.78 K | 633
